How the values were obtained:
MDA-MB-231 cancer cells = assay: MTS assay, MDA-MB-231 cells; format: cell-based; set-up: concentration or dose not given beside the values
Description: (§1) Cells were maintained at 37° C., 5% CO2 in DMEM media supplemented with 1% fetal bovine serum, penicillin/streptomycin and fungizone (Invitrogen). Cells were seeded into 96-well tissue culture plates at 3000 per well and cultured at 37° C. for 18 hours. Test compounds were dissolved and diluted to 300× in DMSO then diluted 1:40 in DMEM. Cells were incubated with test compounds for 72 hours followed by incubation with tetrazolium compound (3-(4,5-dimethylthiazol-2-yl)-5-(3-carboxymethoxyphenyl)-2-(4-sulfophenyl)-2H-tetrazolium, inner salt; MTS) and the electron coupling reagent, phenazine methosulfate (PMS) for 4 hours. […] The ability of compounds to inhibit cell growth in this assay is correlated with the reduction of dehydrogenase enzyme activity found in metabolically active cells. The measurement of the absorbance of the formazan was assessed using a Victor (Perkin Elmer) microplate reader at 492 nm. The calculated IC50 value is the concentration of the test compound that causes a 50% decrease in the absorbance. Percent inhibition by representative compounds of the present invention in MDA-MB231 and DLD-1 cancer cells is shown in Table 4.

FGFR2 (N549H) = biological target: T1, FGFR2 (N549H) (Homo sapiens, UniProt P21802, N549H); assay: FGFR2 kinase activity assay (fluorescent ELISA); format: biochemical; settings: 30 μM compound
T1 construct: purchased Millipore 14-742
Description: A fluorescent ELISA assay was developed to identify and characterize inhibitors of FGFR2 kinase. This heterogeneous assay utilized a biotinylated peptide with a tyrosine motif as a substrate and an anti-phospho-tyrosine antibody to measure phosphorylation of the substrate. The reaction was initiated by adding a test compound, 37 uM Pyk2 substrate (Midwest Biotech, cat. #MBT2383), 12.5 uM ATP (Roche, cat. #11 140 965 001), and 0.5 uM FGFR2 enzyme (Millipore, cat. #14-742) sequentially to a non-binding polypropylene V-well plate. All reagents were in assay buffer consisting of: 50 mM Tris-HCL, 0.02 mg/mL BSA, 10 mM MgCl2, 0.1 mM Na3VO4, 1 mM EGTA, […], 0.01% NP-40, 2 mM DTT, 10% Glycerol. The reaction was incubated for 60 minutes. As the reaction proceeded, FGFR2 phosphorylated tyrosines in the peptide. The reaction mixture was then moved to a blocked streptavidin coated Nunc Maxisorb plate (coated with 100 ng streptavidin from Pierce (cat #15-124) per well) allowing for the capture of the biotinylated peptide. Peptide was captured for 30 minutes at room temperature, the phosphorylation of peptide continues during this phase. The reaction was stopped by washing the Streptavidin plate 6 times with TBST. Phosphorylated peptide was detected by adding anti-phospho tyrosine antibody (purchased from Cell Signaling, cat. #9411, diluted 1:3000), unbound antibody was removed by washing 6 times with TBST. Secondary detection was performed using Alkaline Phosphatase tagged goat anti-mouse antibody (purchased from Pierce, cat. #31320, diluted 1:4000) for one hour. Unbound secondary antibody was removed by washing 6 times with TBST.
The fluorescent readout was initiated by the addition of Promega Attophos substrate (purchased from Promega; Kit catalog number: S1000, dilution=6 mg/10 mL), which when dephosphorylated by Alkaline phosphatase emitted a fluorescent signal of […] when excited by a signal […]. This reading was done on the Perkin Elmer Envision system. […] The signal was directly proportional to the activity of FGFR2 and compound inhibition of FGFR2 was monitored by a decrease in signal.

DLD-1 cancer cells = assay: MTS assay, DLD-1 cells; format: cell-based; set-up: concentration or dose not given beside the values
Description: as §1

T1 sequence (P21802 22-821 N549H): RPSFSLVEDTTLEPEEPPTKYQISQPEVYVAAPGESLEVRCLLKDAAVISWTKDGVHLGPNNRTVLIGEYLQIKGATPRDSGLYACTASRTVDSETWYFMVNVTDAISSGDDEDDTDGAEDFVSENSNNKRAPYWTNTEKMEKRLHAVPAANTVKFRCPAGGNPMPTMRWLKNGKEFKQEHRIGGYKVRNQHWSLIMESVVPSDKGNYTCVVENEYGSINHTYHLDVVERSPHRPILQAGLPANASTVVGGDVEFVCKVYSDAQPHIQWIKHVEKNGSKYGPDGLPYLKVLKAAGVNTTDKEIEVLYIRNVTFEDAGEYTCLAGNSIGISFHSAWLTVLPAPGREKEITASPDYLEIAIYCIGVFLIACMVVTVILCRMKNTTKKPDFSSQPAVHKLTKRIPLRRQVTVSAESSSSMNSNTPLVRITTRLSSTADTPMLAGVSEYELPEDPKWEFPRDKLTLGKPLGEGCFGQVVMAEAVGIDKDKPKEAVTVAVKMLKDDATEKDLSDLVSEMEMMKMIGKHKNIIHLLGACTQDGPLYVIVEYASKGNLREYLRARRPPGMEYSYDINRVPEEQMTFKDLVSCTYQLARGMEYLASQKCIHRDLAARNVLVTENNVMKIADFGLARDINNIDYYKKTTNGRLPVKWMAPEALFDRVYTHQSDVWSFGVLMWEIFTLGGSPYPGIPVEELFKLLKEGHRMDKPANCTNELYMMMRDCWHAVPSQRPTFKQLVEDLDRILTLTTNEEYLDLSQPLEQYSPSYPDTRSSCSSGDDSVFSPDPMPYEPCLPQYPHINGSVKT

| Compound | MDA-MB-231, MTS, 72 hours (% inhibition) (MDA-MB-231 cancer cells) | inhibition at 30 µM (FGFR2 (N549H)) | DLD-1, MTS, 72 hours (% Inhibition) (DLD-1 cancer cells) |
| --- | --- | --- | --- |
| Nc1nnc2c(Nc3cc(Cl)ccc3Cl)nccn12 [Compound 160, N^8-(2,5-dichlorophenyl)[1,2,4]triazolo[4,3-a]pyrazine-3,8-diamine] | 81% | 68.6% | 53% |
| Cc1ccccc1Nc1nccn2c(N)nnc12 [Compound 157, N^8-(2-methylphenyl)[1,2,4]triazolo[4,3-a]pyrazine-3,8-diamine] | 98% | 54.6% | 97% |
| Nc1nnc2c(NCCc3ccc(Cl)cc3)nccn12 [Compound 115, N^8-[2-(4-chlorophenyl)ethyl][1,2,4]triazolo[4,3-a]pyrazine-3,8-diamine] | 99% | 71.6% | 98% |
| CC(C)OC(=O)Nc1nnc2c(Nc3ccc(Br)cc3)nccn12 [Compound 52, isopropyl {8-[(4-bromophenyl)amino][1,2,4]triazolo[4,3-a]pyrazin-3-yl}carbamate] | 98% | 95.1% | 97% |

Reference: patent US8329705B2, “Substituted triazolo-pyrazine compounds” (ArQule, Inc., priority 2009, dated 2012)
